Values after ≈ are worked out from the molar mass of the structure shown. Where only a bound is given, the exact number is not on record here.

By MIC is commonly meant the smallest concentration in the dilution series that meets the test's criterion for growth inhibition.

Holding throughout (type): cell-based
The subject of assay [1] is Gram-negative bacteria (such as Pseudomonas aeruginosa, Serratia marcescens and the like). The experiment in a line: confirmatory experiment on the antibacterial activity of Compound α. An excerpt: (§1) On the other hand, Compound α has only been reported to be useful as an intermediate material for the preparation of 9-fluoro-6, 7-dihydro-7-hydroxy-5-methyl-1-oxo-1H, 5H-benzo[ij]quinolizine-2-carboxylic acid (Japanese Patent Laid-Open No. 127,099/'76), and no detailed report on its antibacterial activity has been published.

A further assay deals with Gram-positive bacteria. The description is as above.
Description: as §1

In a further assay the test system is Enterobacter cloacae 963. The experiment in a line: minimal inhibitory concentration, in vitro antibacterial activity. The conditions noted are these: 37° C., 20 hours. The method, boiled down:
(§2)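 Japan Society of Chemotherapy standard MIC method; 37° C., 20 h culture; MIC = lowest concentration with no bacterial growth.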

Assay [2] concerns Bacillus subtilis ATCC 6633. The description is as above. As to conditions: ATCC6633, 37° C., 20 hours. Summed up: as §2
The test system of assay [3] is Serratia marcescens IAM 1184. The assay is described as above. The conditions noted are these: IAM1184, 37° C., 20 hours. The method, boiled down: as §2
Assay [4] relates to Streptococcus faecalis AHU 1085. Described as above. The conditions noted are these: Enterococcus faecalis, AHU1085, 37° C., 20 hours. Summed up: as §2
Another assay has as its system Escherichia coli CI-304. The description is as above. The conditions noted are these: CI304, 37° C., 20 hours. Summed up:
as §2

Assay [5] deals with Salmonella enteritidis G14. Described as above. As to conditions: Salmonella enterica, 37° C., 20 hours. The method, boiled down:
as §2

Assay [6] relates to Klebsiella pneumoniae PCI 602. The description is as above. The conditions noted are these: PCI602, 37° C., 20 hours. The method, boiled down:
as §2

Assay [7] deals with Proteus vulgaris ATCC 13315. The assay is described as above. The conditions noted are these: ATCC13315, 37° C., 20 hours. The method, boiled down:
as §2

Assay [8] relates to Pseudomonas aeruginosa NCTC 10490. The assay is described as above. The conditions noted are these: NCTC10490, 37° C., 20 hours. Summed up:
as §2

The test system of assay [9] is Staphylococcus aureus FDA 209P JC-1. Described as above. As to conditions: FDA209P, 37° C., 20 hours. The method, boiled down:
as §2

For assay [10], the system named is Escherichia coli NIHJ JC-2. The description is as above. The conditions noted are these: NIHJJC2, 37° C., 20 hours. Summed up:
as §2

As to `CC1CC(=O)c2cc(F)cc3c(=O)c(C(=O)O)cn1c23` (stereo not drawn) [Compound α, 9-fluoro-6,7-dihydro-1,7-dioxo-5-methyl-1H, 5H-benzo[ij]quinolizine-2-carboxylic acid, reference compound], the “efficacy against Gram-negative bacteria” value in [1] is “utterly ineffective”. The “efficacy against Gram-positive bacteria” value in the assay on Gram-positive bacteria is “low”. The MIC was 12.5 µg/mL (≈ 45.4 µM) against Enterobacter cloacae 963; 12.5 µg/mL (≈ 45.4 µM) in assay [2]; > 100 µg/mL in assay [3]; > 100 µg/mL in assay [4]; 12.5 µg/mL (≈ 45.4 µM) against Escherichia coli CI-304; 50 µg/mL (≈ 182 µM) in [5]. For the same compound, the MIC was 12.5 µg/mL (≈ 45.4 µM) in assay [6]; 25 µg/mL (≈ 90.8 µM) in assay [7]; > 100 µg/mL in assay [8]; > 100 µg/mL in [9]; 25 µg/mL (≈ 90.8 µM) in assay [10].

The values are drawn from US4720495A, “Benzo[ij]quinolizine-2-carboxylic acids useful for treating bacterial infection” (priority 1985, dated 1988).
